Results from publication PMC6736837, “^18F-labelled triazolyl-linked argininamides targeting the neuropeptide Y Y1R for PET imaging of mammary carcinoma” (Scientific Reports, 2019).

Columns and labels:
hY1R = molecular target: T1, hY1R (Homo sapiens, UniProt P25929); test: Y1R competition binding with [^3H]UR-MK299 on SK-N-MC neuroblastoma cells; settings: displacement of [^3H]UR-MK299, SK-N-MC neuroblastoma cells
T1 construct: endogenous in cells; host or cells: SK-N-MC neuroblastoma cells
T1 sequence (P25929 1-384): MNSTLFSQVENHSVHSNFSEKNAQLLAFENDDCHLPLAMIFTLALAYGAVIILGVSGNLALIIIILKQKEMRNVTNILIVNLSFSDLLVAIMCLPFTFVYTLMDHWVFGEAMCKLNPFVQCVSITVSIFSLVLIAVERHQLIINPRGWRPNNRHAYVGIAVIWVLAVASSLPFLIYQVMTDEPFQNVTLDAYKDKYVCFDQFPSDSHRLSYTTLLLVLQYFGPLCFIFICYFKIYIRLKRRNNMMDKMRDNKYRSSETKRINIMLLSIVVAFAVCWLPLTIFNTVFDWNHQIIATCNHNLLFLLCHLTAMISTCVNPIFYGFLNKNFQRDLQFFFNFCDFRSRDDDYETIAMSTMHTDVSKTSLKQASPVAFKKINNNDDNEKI
Description: (§1) Data analysis (four-parameter sigmoidal fitting of specifically bound radioligand plotted against log(concentration) competitor) was performed using SigmaPlot (Systat Software, San Jose, CA, USA) (Y1R binding). IC50 values were converted to Ki values according to the Cheng-Prusoff equation[24].

hY2R = molecular target: T2, hY2R (Homo sapiens, UniProt P49146); test: Competition binding on CHO-hY2-Gqi5-mtAEQ cells with [^3H]propionyl-pNPY; settings: for selectivity for Y1R over Y2R (multiple of the Ki value for Y1R): calculated from Ki values; for binding to Y2R (in words): maximum concentration of 10 µM
T2 construct: expressed in transfected cells; host or cells: CHO cells (CHO-hY2-Gqi5-mtAEQ)
T2 sequence (P49146 1-381): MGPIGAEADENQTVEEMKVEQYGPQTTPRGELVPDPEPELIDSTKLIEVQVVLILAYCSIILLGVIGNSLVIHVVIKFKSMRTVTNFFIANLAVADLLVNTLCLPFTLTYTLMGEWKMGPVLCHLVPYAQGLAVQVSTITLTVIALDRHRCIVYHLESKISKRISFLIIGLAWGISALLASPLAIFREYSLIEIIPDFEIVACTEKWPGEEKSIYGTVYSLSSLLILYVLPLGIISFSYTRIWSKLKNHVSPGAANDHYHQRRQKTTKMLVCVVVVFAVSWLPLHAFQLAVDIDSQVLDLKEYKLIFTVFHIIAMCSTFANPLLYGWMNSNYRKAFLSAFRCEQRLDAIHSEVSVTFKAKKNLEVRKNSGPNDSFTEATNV
Description: as §1
(§2) Table S1: Structures, in-vitro Y1 receptor affinities and selectivities of potential Y1R PET radioligands. For Y2R, Y4R and Y5R, Ki values are given in the first row. In the second row, the calculated selectivities for Y1R over Y2R, Y4R and Y5R are given as a multiple of the Ki value for […]
(§3) compound structure hY1R hY2R hY4R hY5R
(§4) Ki ± SEMa Kiselectivity selectivity selectivity […]
(§5) aDetermined by competition binding on SK-N-MC neuroblastoma cells using the radioligand [3H]UR-MK2994.
(§6) Mean Ki values ± SEM are the results of three individual experiments each performed in triplicate. bDetermined by competition binding at CHO-hY2-Gqi5-mtAEQ cells and HEC-1b hY5R cells using the radioligand [3H]propionyl-pNPY. Two independent experiments were performed in triplicate. cDetermined by competition binding on CHO-hY4R-Gqi5-mtAEQ cells using the radioligand [3H]UR-KK200.
(§7) Two independent experiments were performed in triplicate.
(§8) SEM = standard error of the mean. […]

hY5R = molecular target: T3, hY5R (Homo sapiens, UniProt Q15761); test: Competition binding on HEC-1b hY5R cells with [^3H]propionyl-pNPY; settings: for selectivity for Y1R over Y5R (multiple of the Ki value for Y1R): calculated from Ki values; for binding to Y5R (in words): maximum concentration of 10 µM
T3 construct: expressed in transfected cells; host or cells: HEC-1b cells (HEC-1b hY5R)
T3 sequence (Q15761 1-445): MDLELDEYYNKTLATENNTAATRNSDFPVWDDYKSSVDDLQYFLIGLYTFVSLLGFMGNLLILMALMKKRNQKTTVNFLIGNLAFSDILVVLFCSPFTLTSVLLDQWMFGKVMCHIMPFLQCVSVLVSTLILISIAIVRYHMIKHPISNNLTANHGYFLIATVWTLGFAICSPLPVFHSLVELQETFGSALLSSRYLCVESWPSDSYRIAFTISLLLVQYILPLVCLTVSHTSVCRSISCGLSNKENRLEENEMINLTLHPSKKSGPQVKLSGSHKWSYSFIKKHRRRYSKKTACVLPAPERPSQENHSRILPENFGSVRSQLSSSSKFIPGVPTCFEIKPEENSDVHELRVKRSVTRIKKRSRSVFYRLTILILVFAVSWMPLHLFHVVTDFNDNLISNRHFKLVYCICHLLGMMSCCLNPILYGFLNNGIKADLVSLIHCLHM
Description: as §1, §2, §3, §4, §5, §6, §7, §8

hY4R = molecular target: T4, hY4R (Homo sapiens, UniProt P50391); test: Competition binding on CHO-hY4R-Gqi5-mtAEQ cells with [^3H]UR-KK200; settings: for Ki: CHO-hY4R-Gqi5-mtAEQ cells, [^3H]UR-KK200; for selectivity for Y1R over Y4R (multiple of the Ki value for Y1R): calculated from Ki values; for binding to Y4R (in words): maximum concentration of 10 µM
T4 construct: expressed in transfected cells; host or cells: CHO cells (CHO-hY4R-Gqi5-mtAEQ)
Description: as §1, §2, §3, §4, §5, §6, §7, §8

T4 sequence (P50391 whole entry): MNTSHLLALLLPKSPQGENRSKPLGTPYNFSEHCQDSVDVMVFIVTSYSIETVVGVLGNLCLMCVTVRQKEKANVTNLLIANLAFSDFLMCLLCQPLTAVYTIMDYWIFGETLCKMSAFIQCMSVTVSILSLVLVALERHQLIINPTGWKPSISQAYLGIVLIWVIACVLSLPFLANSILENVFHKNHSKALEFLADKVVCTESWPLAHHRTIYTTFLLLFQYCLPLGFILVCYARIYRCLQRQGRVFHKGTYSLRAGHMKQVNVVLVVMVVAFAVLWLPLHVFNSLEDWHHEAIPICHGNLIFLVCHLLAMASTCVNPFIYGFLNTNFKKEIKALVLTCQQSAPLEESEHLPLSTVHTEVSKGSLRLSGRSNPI

Ki (hY1R) [µM] | Ki (hY2R) [µM] | selectivity for Y1R over Y2R (multiple of the Ki value for Y1R) (hY2R) [×] | Ki (hY5R) [µM] | selectivity for Y1R over Y5R (multiple of the Ki value for Y1R) (hY5R) [×] | Ki (hY4R) [µM] | selectivity for Y1R over Y4R (multiple of the Ki value for Y1R) (hY4R) [×] | Structure (SMILES) | binding to Y2R (in words) (hY2R) | binding to Y5R (in words) (hY5R) | binding to Y4R (in words) (hY4R)
0.0028 | > 10 | > 3610 | > 15 | > 5415 | > 10 | > 3610 | N/C(=N/C(=O)NCc1cn(CCOCCF)nn1)NCCC[C@@H](NC(=O)C(c1ccccc1)c1ccccc1)C(=O)NCc1ccc(O)cc1 [compound 12, (2R)‐5‐{[(1Z)‐Amino({[({1‐[2‐(2‐fluoroethoxy)ethyl]‐1H‐1,2,3‐triazol‐4‐yl}methyl)carbamoyl]-imino})methyl]amino}‐2‐(2,2‐diphenylacetamido)‐N‐[(4‐hydroxyphenyl)methyl]pentanamide] | None of the three compounds showed considerable binding | None of the three compounds showed considerable binding | None of the three compounds showed considerable binding
0.00094 |  |  |  |  |  |  | C#CCNC(=O)N=C(N)NCCC[C@@H](NC(=O)C(c1ccccc1)c1ccccc1)C(=O)NCc1ccc(O)cc1 [compound 7] |  |  | 
0.208 | > 10 | > 48 | > 15 | > 72 | > 3 | > 14 | N/C(=N/C(=O)NCc1cn([C@@H]2OC(CF)[C@@H](O)C(O)C2O)nn1)NCCC[C@@H](NC(=O)C(c1ccccc1)c1ccccc1)C(=O)NCc1ccc(O)cc1 (stereo partly drawn) [compound 11, (2R)‐5‐{[(1Z)‐Amino({[({1‐[(2R,5S)‐6‐(fluoromethyl)‐3,4,5‐trihydroxyoxan‐2‐yl]‐1H‐1,2,3‐triazol‐4‐yl}methyl)carbamoyl]imino})methyl]amino}‐2‐(2,2‐diphenylacetamido)‐N‐[(4‐hydroxyphenyl)-methyl]pentanamide] | None of the three compounds showed considerable binding | None of the three compounds showed considerable binding | None of the three compounds showed considerable binding
0.029 | > 5 | > 173 | > 10 | > 345 | > 10 | > 345 | N/C(=N/C(=O)NCc1cn(CCOCCOCCOCCF)nn1)NCCC[C@@H](NC(=O)C(c1ccccc1)c1ccccc1)C(=O)NCc1ccc(O)cc1 [compound 13, (2R)‐5‐{[(1Z)‐Amino[({[1‐(2‐{2‐[2‐(2‐fluoroethoxy)ethoxy]ethoxy}ethyl)‐1H‐1,2,3‐triazol‐4‐yl]methyl}carbamoyl)imino]methyl]amino}‐2‐(2,2‐diphenylacetamido)‐N‐[(4‐hydroxyphenyl)-methyl]pentanamide] | None of the three compounds showed considerable binding | None of the three compounds showed considerable binding | None of the three compounds showed considerable binding
